The numbers were not newly measured in US20090130675A1, “Genes Involved in the Biosynthesis of Thiocoraline and Heterologous Production of Same” (PHARMA MAR, S.A., priority 2005, published 2009), which cites them from elsewhere.

In data set [1] the test system is cell lines of different types of solid tumors, such as melanoma, breast, non-microcytic lung and colon cancer. As to conditions: in vitro.
Data set [2] concerns human carcinoma xenografts. The following applies: in vivo, human carcinoma xenografts (Faircloth et al. 1997).
The subject of another data set is Gram-positive bacteria. As to conditions: against Gram-positive bacteria.

Turning to Thiocoraline, in data set [1], the “capacity to inhibit the growth of cell lines” value is reported as “inhibit the growth of cell lines”. In addition, the antitumor activity result in data set [2] is given as “marked antitumor activity”. In addition, the antibacterial activity result in the data set on Gram-positive bacteria is on record as “shows antibacterial activity”.
